Measured values published in the NIST ThermoML archive (doi:10.1016/j.fluid.2019.04.019).
Numbers after ± are expanded uncertainties.

Legend:
[1] = Crystal
[2] = Molar enthalpy of transition or fusion; settings: Crystal; DSC

CCC[N+]1(C)CCCCC1.[Cl-] [1-methyl-1-propyl-piperidinium chloride]
Normal melting temperature ([1]; visual observation): 225.2 ± 0.5 °C

CCCC[n+]1ccccc1.[Cl-] [1-butylpyridinium chloride]
Normal melting temperature ([1]; DTA): 132.2 ± 0.5 °C | Molar enthalpy of transition or fusion [2]: 6.25 ± 0.182 kcal/mol

C[N+](C)(C)Cc1ccccc1.[Cl-] [trimethylbenzylammonium chloride]
Normal melting temperature ([1]; visual observation): 236.1 ± 0.5 °C

C[N+](C)(C)C.[Cl-] [tetramethylammonium chloride]
Normal melting temperature ([1]; visual observation): 341.6 ± 0.5 °C

CC[N+](CC)(CC)CC.[Cl-] [tetraethylammonium chloride]
Normal melting temperature ([1]; visual observation): 262.2 ± 0.5 °C

C[N+](C)(CCO)CCO.[Cl-] [diethanoldimethylammonium chloride]
Normal melting temperature ([1]; visual observation): 290.6 ± 0.5 °C

CC(O)C[N+](C)(C)C.[Cl-] (stereo not drawn) [beta.-methylcholine chloride]
Normal melting temperature ([1]; DTA): 169 ± 0.5 °C | Molar enthalpy of transition or fusion [2]: 1.61 ± 0.0693 kcal/mol

C[N+](C)(C)CCO.[Br-] [choline bromide]
Normal melting temperature ([1]; visual observation): 308.5 ± 0.5 °C
